Earlier results as cited in patent publication US6344215B1, “Methylphenidate modified release formulations” (Eurand America, Inc., priority 2000, dated 2002).
Where a name gives a salt, the structure may show the parent alone.

Settings: gastrointestinal tract

For `COC(=O)C(c1ccccc1)C1CCCCN1` (stereo not shown) [Methylphenidate Hydrochloride], the absorption is listed as “well absorbed throughout the gastrointestinal tract”.
